Measurements taken from patent US11945822B2, “Pyrazolo-triazine and/or pyrazolo-pxrimidine derivatives as selective inhibitor of cyclin dependent kinase” (QURIENT CO., LTD., priority 2018, dated 2024).

Assays:
CDK1/Cyclin B = target: T1, CDK1/Cyclin B (Homo sapiens, UniProt P06493); assay: Enzymatic assay for CDK1 (FRET based LANCE Ultra kinase assay); assay type: biochemical; details: read-out: CDK1 enzymatic activity (IC50 range)
T1 construct: purchased Invitrogen PR4768C
Outline: (§1)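 TR-FRET (LANCE Ultra) kinase assay at ATP Km, ULight-MBP peptide substrate (68 nM), 8-dose 4-fold compound series in DMSO. Enzymes: […]; 60 min at 23° C., stopped with EDTA plus Eu-anti-phospho-MBP antibody, read 665/615 nm after 60 min.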

CDK2/Cyclin A = target: T2, CDK2/Cyclin A (Homo sapiens, UniProt P24941); assay: Enzymatic assay for CDK2 (FRET based LANCE Ultra kinase assay); assay type: biochemical; details: read-out: CDK2 enzymatic activity (IC50 range)
T2 construct: purchased Invitrogen PV6290
Outline: as §1

CDK5/p25 = target: T3, CDK5/p25 (Homo sapiens, UniProt Q00535); assay: Enzymatic assay for CDK5 (FRET based LANCE Ultra kinase assay); assay type: biochemical; details: read-out: CDK5 enzymatic activity (IC50 range)
T3 construct: purchased Invitrogen PR8543B
T3 sequence (Q00535 whole entry): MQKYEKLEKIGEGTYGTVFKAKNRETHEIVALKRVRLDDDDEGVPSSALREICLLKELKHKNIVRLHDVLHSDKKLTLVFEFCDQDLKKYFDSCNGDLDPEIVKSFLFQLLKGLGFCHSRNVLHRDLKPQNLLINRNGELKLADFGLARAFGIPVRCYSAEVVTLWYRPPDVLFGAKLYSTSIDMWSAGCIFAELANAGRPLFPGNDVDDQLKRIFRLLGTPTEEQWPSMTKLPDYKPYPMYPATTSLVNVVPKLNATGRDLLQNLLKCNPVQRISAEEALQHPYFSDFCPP
T3 sequence (Q15078 99-307 partner limits assumed): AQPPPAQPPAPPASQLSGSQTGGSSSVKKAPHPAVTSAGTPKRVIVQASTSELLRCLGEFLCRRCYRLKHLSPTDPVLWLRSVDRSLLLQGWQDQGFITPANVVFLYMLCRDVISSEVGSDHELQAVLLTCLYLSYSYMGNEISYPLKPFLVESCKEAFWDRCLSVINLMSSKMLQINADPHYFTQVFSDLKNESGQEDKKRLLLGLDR
Outline: as §1

MV4-11 = assay: Cellular MV4-11 viability assay (CellTiter-Glo, 72 hours); assay type: cell-based; details: Homo sapiens
Outline: (§2)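 72 h treatment, 37 °C, 5% CO2; DMSO ctrl, final <0.1%; CellTiter-Glo luminescence; n=2.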

MM.1S = assay: Cellular MM.1S viability assay (CellTiter-Glo, 72 hours); assay type: cell-based; details: Homo sapiens, MM1.S
Text: Human T-cell acute lymphoblastic leukemia cell line, MOLT-4 (ATCC, Cat #CRL-1582), Human multiple myeloma cell line, RPMI-8226 (Invitrogen, Cat #22400-089) and MM.1S (ATCC, Cat #CRL-2974), NSCLC (Non-small cell lung cancer) cell line H460 (ATCC, Cat #HTB-177), Human colon colorectal carcinoma cell line HCT116 (ATCC, Cat #CCL-247), Human acute monocytic leukemia cell line MV4-11 (ATCC, Cat #CRL-9591), OVCAR-3 (ATCC, Cat #HTB-161) and A2780 (ECACC, Cat #93112519) were obtained from ATCC. Cells were grown in RPMI-1640 media (Invitrogen, Cat #22400-089) supplemented with 10% FBS (Invitrogen, Cat #10099141) and 1% penicillin/streptomycin (Invitrogen, Cat #15070063) and cultured at 37° C., 5% CO2 in a humidified chamber. All cell lines were routinely tested for mycoplasma.
The effect of the CDK7 inhibitor to inhibit the growth of target cancer cells was evaluated through the 72 hours time period of viability assay. Briefly, the candidate cell line ware plated in 96 well plate at the following density of cells respectively. 1×10^4 cells/well for MOLT-4, RPMI-8226, MV4-11 and MM.1S, 5×10^3 for H460, HCT116 and OVCAR-3 and IX 10^3 for A2780. After 24 hours, the cells were treated with various concentrations of the compound (ranging from 0.0015 uM to 10 uM). DMSO solvent without compound served as a control and final DMSO concentration less than 0.1%. After 72 hours of incubation at 37° C., 5% CO2 incubator, cells were analyzed for the viability using the CellTiter-Glo Luminescent Cell Viability Assay (Promega, Cat #G7570). All viability assays were performed in duplicate and Luminescence was read using an Envision (Perkin Elmer, USA). Data was analyzed using XLfit software.

CDK7/Cyclin H/MNAT1 = target: T4, CDK7/Cyclin H/MNAT1 (Homo sapiens, UniProt P50613); assay: Enzymatic assay for CDK7 (FRET based LANCE Ultra kinase assay); assay type: biochemical; details: for IC50: read-out: CDK7 enzymatic activity (IC50 range)
T4 construct: purchased Invitrogen PR6749B
T4 sequence (P50613 whole entry): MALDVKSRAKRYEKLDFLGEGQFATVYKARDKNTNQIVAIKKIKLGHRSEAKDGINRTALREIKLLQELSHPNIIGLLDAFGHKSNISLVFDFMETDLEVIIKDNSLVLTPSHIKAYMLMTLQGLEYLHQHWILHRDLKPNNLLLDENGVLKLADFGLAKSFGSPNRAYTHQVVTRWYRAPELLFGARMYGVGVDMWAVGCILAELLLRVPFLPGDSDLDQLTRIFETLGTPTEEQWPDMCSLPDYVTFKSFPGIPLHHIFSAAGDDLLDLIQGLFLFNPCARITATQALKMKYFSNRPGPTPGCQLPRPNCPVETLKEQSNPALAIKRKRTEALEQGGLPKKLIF
T4 sequence (P51946 whole entry partner): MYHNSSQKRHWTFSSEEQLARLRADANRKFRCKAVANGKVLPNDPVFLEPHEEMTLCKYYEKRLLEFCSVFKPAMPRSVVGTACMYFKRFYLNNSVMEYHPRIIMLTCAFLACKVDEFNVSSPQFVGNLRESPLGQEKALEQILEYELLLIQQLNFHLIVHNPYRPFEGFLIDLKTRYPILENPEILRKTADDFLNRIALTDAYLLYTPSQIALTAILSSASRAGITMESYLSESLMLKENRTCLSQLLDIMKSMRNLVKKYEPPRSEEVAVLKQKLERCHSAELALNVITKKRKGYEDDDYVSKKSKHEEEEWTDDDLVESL
T4 sequence (P51948 whole entry partner): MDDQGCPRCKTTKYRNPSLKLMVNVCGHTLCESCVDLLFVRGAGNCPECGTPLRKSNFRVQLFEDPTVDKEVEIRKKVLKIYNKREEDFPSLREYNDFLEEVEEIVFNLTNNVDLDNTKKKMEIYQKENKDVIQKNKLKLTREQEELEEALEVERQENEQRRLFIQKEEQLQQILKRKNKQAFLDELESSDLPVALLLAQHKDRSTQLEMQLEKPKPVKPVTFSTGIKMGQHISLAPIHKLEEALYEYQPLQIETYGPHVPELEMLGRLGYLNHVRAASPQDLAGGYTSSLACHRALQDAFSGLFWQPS
Outline: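 LANCE Ultra TR-FRET kinase assay using a ULight-labeled peptide substrate and a Eu-labeled anti-phospho antibody, with ATP at its Km. Purified CDK/cyclin complex was added to compound after brief centrifugation.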

HCT116 = assay: Cellular HCT116 viability assay (CellTiter-Glo, 72 hours); assay type: cell-based; details: Homo sapiens, HCT-116
Outline: as §2

H460 = assay: Cellular H460 viability assay (CellTiter-Glo, 72 hours); assay type: cell-based; details: Homo sapiens, NCI-H460
Outline: as §2

T1 sequence (P06493 whole entry): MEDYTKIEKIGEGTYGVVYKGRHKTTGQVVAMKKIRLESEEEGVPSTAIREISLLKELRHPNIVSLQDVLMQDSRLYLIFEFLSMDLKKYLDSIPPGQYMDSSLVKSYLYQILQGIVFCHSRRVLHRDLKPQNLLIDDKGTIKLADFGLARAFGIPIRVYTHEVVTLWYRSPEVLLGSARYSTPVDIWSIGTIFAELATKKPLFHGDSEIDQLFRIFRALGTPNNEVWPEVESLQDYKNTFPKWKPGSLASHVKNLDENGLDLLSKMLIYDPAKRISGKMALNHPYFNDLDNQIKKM
T1 sequence (P14635 whole entry partner): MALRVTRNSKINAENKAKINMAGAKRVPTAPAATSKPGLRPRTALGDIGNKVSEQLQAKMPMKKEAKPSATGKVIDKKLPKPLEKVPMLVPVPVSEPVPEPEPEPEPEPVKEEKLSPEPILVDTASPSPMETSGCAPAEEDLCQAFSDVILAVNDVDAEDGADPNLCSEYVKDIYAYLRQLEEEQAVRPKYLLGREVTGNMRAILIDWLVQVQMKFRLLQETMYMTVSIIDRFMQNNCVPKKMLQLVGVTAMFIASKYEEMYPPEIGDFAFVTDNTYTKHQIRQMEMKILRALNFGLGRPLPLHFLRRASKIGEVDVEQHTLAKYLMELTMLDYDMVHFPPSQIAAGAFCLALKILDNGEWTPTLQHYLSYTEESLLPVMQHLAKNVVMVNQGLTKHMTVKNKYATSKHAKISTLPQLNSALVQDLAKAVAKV

| Compound | IC50 (CDK1/Cyclin B) [µM] | IC50 (CDK2/Cyclin A) [µM] | IC50 (CDK5/p25) [µM] | IC50 (MV4-11) [µM] | IC50 (MM.1S) [µM] | CDK1/CDK7: Selectivity of CDK7 inhibition over CDK1 inhibition (CDK7/Cyclin H/MNAT1) | CDK2/CDK7: Selectivity of CDK7 inhibition over CDK2 inhibition (CDK7/Cyclin H/MNAT1) | CDK5/CDK7: Selectivity of CDK7 inhibition over CDK5 inhibition (CDK7/Cyclin H/MNAT1) | IC50 (CDK7/Cyclin H/MNAT1) [µM] | IC50 (HCT116) [µM] | IC50 (H460) [µM] |
| --- | --- | --- | --- | --- | --- | --- | --- | --- | --- | --- | --- |
| CC(C)c1cnn2c(NCc3c(Cl)cccc3-n3cc(N4CCNCC4)cn3)nc(N3CCC(N)CC3)nc12 [Compound 193] | > 1 | > 1 | 0.1 to 1 | < 1 | ≤ 1 | A (A=greater than 200 fold) | A (A=greater than 200 fold) | B (B=less than 200 fold, but greater than 20 fold) | < 0.1 | < 1 | < 1 |
| CC(C)c1cnn2c(N[C@@H](C)c3ccccc3-n3cc(N4CCNCC4)cn3)nc(N3CCC(N)CC3)nc12 [Compound 192] | > 1 | > 1 | > 1 | < 1 | 1 to 10 | A (A=greater than 200 fold) | A (A=greater than 200 fold) | A (A=greater than 200 fold) | < 0.1 | < 1 | 1 to 10 |
| CNC(=O)c1ccn(-c2cccc(Cl)c2CNc2nc(N3CCC(N)CC3)nc3c(C(C)C)cnn23)n1 [Compound 197] | > 1 | > 1 | 0.1 to 1 | < 1 | ≤ 1 | A (A=greater than 200 fold) | A (A=greater than 200 fold) | B (B=less than 200 fold, but greater than 20 fold) | < 0.1 | < 1 | < 1 |
| CNC(=O)c1ccc2nc(-c3ccccc3CNc3nc(N4CCC(N)CC4)nc4c(C(C)C)cnn34)cnc2c1 [Compound 153] | > 1 | > 1 | 0.1 to 1 | < 1 | ≤ 1 | A (A=greater than 200 fold) | A (A=greater than 200 fold) | B (B=less than 200 fold, but greater than 20 fold) | < 0.1 | < 1 | < 1 |
| CC(C)c1cnn2c(NCc3ccccc3-n3ccc(CO)n3)nc(N3CCC(N)CC3)nc12 [Compound 181] | 0.1 to 1 | 0.1 to 1 | 0.1 to 1 | < 1 | ≤ 1 | B (B=less than 200 fold, but greater than 20 fold) | B (B=less than 200 fold, but greater than 20 fold) | B (B=less than 200 fold, but greater than 20 fold) | < 0.1 | < 1 | < 1 |
| CNC(=O)c1cc2cn(-c3ccccc3CNc3nc(N4CCC(N)CC4)nc4c(C(C)C)cnn34)nc2cc1C [Compound 160] | > 1 | 0.1 to 1 | 0.1 to 1 | < 1 | ≤ 1 | A (A=greater than 200 fold) | B (B=less than 200 fold, but greater than 20 fold) | B (B=less than 200 fold, but greater than 20 fold) | < 0.1 | < 1 | < 1 |
| Cc1cccc(-c2cc3ccccc3[nH]2)c1CNc1nc(N2CCC(N)CC2)nc2c(C(C)C)cnn12 [Compound 184] | > 1 | > 1 | 0.1 to 1 | < 1 | ≤ 1 | A (A=greater than 200 fold) | A (A=greater than 200 fold) | B (B=less than 200 fold, but greater than 20 fold) | < 0.1 | < 1 | < 1 |
| CC(C)c1cnn2c(NCc3ccccc3-n3ccc(C(=O)NC4CCOCC4)n3)nc(N3CCC(N)CC3)nc12 [Compound 177] | 0.1 to 1 | 0.1 to 1 | < 0.1 | < 1 | ≤ 1 | A (A=greater than 200 fold) | B (B=less than 200 fold, but greater than 20 fold) | C (C=less than 20 fold) | < 0.1 | < 1 | < 1 |
| CC(C)c1cnn2c(NCc3c(Cl)cccc3-n3cc4c(n3)CCNC4=O)nc(N3CCC(N)CC3)nc12 [Compound 189] | > 1 | > 1 | 0.1 to 1 | < 1 | ≤ 1 | A (A=greater than 200 fold) | A (A=greater than 200 fold) | B (B=less than 200 fold, but greater than 20 fold) | < 0.1 | < 1 | < 1 |
| CC(C)c1cnn2c(NCc3c(Cl)cccc3-c3ccn(C4CCNCC4)n3)nc(N3CCC(N)CC3)nc12 [Compound 195] | > 1 | > 1 | 0.1 to 1 | < 1 | ≤ 1 | A (A=greater than 200 fold) | A (A=greater than 200 fold) | A (A=greater than 200 fold) | < 0.1 | < 1 | < 1 |
| CC(C)c1cnn2c(NCc3c(Cl)cccc3-n3ccc(C(=O)N4CCNCC4)n3)nc(N3CCC(N)CC3)nc12 [Compound 198] | > 1 | > 1 | 0.1 to 1 | < 1 | ≤ 1 | A (A=greater than 200 fold) | A (A=greater than 200 fold) | A (A=greater than 200 fold) | < 0.1 | < 1 | 1 to 10 |
| CC(C)c1cnn2c(NCc3ccccc3-n3cc(N4CCNCC4)cn3)nc(N3CCC(N)CC3)nc12 [Compound 180] | 0.1 to 1 | 0.1 to 1 | < 0.1 | < 1 | ≤ 1 | B (B=less than 200 fold, but greater than 20 fold) | B (B=less than 200 fold, but greater than 20 fold) | C (C=less than 20 fold) | < 0.1 | < 1 | < 1 |
| CC(=O)NC1CCc2nn(-c3ccccc3CNc3nc(N4CCC(N)CC4)nc4c(C(C)C)cnn34)cc2C1 (centres unmarked) [Compound 150] | > 1 | > 1 | 0.1 to 1 | < 1 | ≤ 1 | A (A=greater than 200 fold) | A (A=greater than 200 fold) | B (B=less than 200 fold, but greater than 20 fold) | < 0.1 | < 1 | < 1 |
